Assay results reported in patent publication US20210038607A1, “OXADIAZOLYLTHIOPHENE DERIVATIVES USEFUL AS HISTONE DEACETYLASE INHIBITORS” (Karus Therapeutics Limited, priority 2018, published 2021).

Tests used:
Human HDAC1 = biological target: T1, Human HDAC1 (Homo sapiens, UniProt Q13547); assay: HDAC1 biochemical assay, AMC-labeled peptide substrate; conditions: read-out: HDAC Isoform IC50 (nM) 1
T1 construct: full length with C-terminal His-tag and C-terminal FLAG-tag; His (C); FLAG (C); host or cells: baculovirus expression system
T1 sequence (Q13547 whole entry, canonical isoform): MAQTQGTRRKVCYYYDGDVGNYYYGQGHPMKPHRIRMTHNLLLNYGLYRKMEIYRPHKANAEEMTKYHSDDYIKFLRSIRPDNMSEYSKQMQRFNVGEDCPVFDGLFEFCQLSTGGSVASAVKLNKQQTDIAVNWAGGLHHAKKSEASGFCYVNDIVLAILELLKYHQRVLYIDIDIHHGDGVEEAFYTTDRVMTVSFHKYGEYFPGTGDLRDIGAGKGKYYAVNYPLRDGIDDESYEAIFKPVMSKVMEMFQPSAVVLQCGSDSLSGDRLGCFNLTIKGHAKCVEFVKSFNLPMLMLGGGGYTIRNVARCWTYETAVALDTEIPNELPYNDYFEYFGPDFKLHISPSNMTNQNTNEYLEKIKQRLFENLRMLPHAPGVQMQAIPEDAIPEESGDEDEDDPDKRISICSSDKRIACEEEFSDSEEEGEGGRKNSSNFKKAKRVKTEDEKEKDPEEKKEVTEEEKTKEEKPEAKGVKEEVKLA
Protocol: (§1) Activity against all zinc-dependent HDACs 1 to 11 was assessed by using an acetylated AMC-labeled peptide substrate. The substrate RHKK(Ac)AMC was used for HDAC1, HDAC2, HDAC3, HDAC6 and HDAC10; the substrate used for HDAC8 was RHK(Ac)K(Ac)AMC. Activity against the class IIa HDACs (HDAC4, 5, 7, 9) and HDAC11 was determined using a class IIa-specific substrate, BOC-Lys(trifluoroacetyl)-AMC (“Trifluoroacetyl Lysine”; see Lahm et al, 2007, PNAS, 104, 17335-17340). All assays were based on the AMC-labeled substrate and developer combination.
(§2) The protocol involved a two-step reaction: first, the substrate with the acetylated lysine side chain is incubated with a sample containing HDAC activity, to produce the deacetylated products, which are then digested in the second step by the addition of developer to produce the fluorescent signal proportional to the amount of deacetylated substrates.
Human HDAC1 (GenBank Accession No. NM_004964), full length with C-terminal His-tag and C-terminal FLAG-tag, MW=56 kDa, expressed in baculovirus expression system.
(§3) Assay Buffer: 50 mM Tris-HCl, pH8.0, 137 mM NaCl, 2.7 mM KCl, 1 mM MgC2. Before use, 1 mg/mL BSA and DMSO are added.
HDAC1: 0.3 ng/ul HDAC1 and 50 μM HDAC substrate are in the reaction buffer with 1% DMSO final. Incubate for 1 hour at 30° C.
(§4) Stage 1: Deacetylation of substrate by incubation of HDAC enzymes with compounds
(§5) Stage 2: Development by addition of Developer to digest the deacetylated substrate, and generate the fluorescent colour; Detection: 360/460 Ex/Em

Human HDAC4 = biological target: T2, Human HDAC4 (Homo sapiens, UniProt P56524); assay: HDAC4 biochemical assay, class IIa-specific substrate; conditions: read-out: HDAC Isoform IC50 (nM) 4
T2 construct: amino acids 627-1085 with N-terminal GST tag; GST (N); host or cells: baculovirus expression system
T2 sequence (P56524 627-1084 limits assumed): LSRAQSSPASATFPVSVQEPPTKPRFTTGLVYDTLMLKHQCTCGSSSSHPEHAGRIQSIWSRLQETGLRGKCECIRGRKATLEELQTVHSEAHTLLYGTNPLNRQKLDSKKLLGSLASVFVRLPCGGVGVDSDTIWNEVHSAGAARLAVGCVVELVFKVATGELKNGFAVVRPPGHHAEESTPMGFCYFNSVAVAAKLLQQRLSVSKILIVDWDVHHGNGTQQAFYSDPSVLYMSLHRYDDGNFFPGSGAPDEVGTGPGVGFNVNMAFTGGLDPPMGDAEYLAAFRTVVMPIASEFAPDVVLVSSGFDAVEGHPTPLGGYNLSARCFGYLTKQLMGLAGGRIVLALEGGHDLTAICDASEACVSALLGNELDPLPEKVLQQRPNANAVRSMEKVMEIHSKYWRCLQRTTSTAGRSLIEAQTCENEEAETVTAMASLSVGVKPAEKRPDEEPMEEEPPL
Protocol: as §1, §2
Human HDAC4 (GenBank Accession No. NM_006037), amino acids 627-1085 with N-terminal GST tag, MW=75.2 kDa, expressed in baculovirus expression system.
as §3
(§6) For class IIa HDACs, assay buffer is the same.
HDAC4: 0.004 ng/ul HDAC4 and 50 μM Class IIa HDAC substrate are in the reaction buffer with 1% DMSO final. Incubate for 30 minutes at room temperature.
as §4, §5

Human HDAC5 = biological target: T3, Human HDAC5 (Homo sapiens, UniProt Q9UQL6); assay: HDAC5 biochemical assay, class IIa-specific substrate; conditions: read-out: HDAC Isoform IC50 (nM) 5
T3 construct: full length with C-terminal His tag, MW=51.1 kDa; His (C); host or cells: baculovirus expression system
T3 sequence (Q9UQL6 656-1122 limits assumed): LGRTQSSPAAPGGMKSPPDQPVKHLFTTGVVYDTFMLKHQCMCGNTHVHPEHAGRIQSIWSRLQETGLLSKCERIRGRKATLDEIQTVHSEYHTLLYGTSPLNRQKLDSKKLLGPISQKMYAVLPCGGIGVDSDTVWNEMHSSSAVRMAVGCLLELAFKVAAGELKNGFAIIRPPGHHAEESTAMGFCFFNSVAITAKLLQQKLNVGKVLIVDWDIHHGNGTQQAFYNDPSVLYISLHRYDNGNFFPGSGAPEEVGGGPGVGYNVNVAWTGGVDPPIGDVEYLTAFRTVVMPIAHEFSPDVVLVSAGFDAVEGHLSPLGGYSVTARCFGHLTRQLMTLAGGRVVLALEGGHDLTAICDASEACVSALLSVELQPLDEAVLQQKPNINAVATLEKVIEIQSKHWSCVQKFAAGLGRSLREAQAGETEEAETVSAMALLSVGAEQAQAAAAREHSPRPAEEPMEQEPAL
Protocol: as §1, §2
Human HDAC5 (GenBank Accession No. NM_005474), full length with C-terminal His tag, MW=51.1 kDa, expressed in baculovirus expression system.
as §3, §6
HDAC5: 0.05 ng/ul HDAC5 and 50 μM Class IIa HDAC substrate are in the reaction buffer with 1% DMSO final. Incubate for 30 minutes at room temperature.
as §4, §5

Recombinant human HDAC6 = biological target: T4, Recombinant human HDAC6 (Homo sapiens, UniProt Q9UBN7); assay: HDAC6 biochemical assay, AMC-labeled peptide substrate; conditions: HDAC6; read-out: HDAC Isoform IC50 (nM) 6
T4 construct: full length, MW=159 kDa; GST (N); host or cells: Sf9 insect cells (baculovirus)
T4 sequence (Q9UBN7 1-1215): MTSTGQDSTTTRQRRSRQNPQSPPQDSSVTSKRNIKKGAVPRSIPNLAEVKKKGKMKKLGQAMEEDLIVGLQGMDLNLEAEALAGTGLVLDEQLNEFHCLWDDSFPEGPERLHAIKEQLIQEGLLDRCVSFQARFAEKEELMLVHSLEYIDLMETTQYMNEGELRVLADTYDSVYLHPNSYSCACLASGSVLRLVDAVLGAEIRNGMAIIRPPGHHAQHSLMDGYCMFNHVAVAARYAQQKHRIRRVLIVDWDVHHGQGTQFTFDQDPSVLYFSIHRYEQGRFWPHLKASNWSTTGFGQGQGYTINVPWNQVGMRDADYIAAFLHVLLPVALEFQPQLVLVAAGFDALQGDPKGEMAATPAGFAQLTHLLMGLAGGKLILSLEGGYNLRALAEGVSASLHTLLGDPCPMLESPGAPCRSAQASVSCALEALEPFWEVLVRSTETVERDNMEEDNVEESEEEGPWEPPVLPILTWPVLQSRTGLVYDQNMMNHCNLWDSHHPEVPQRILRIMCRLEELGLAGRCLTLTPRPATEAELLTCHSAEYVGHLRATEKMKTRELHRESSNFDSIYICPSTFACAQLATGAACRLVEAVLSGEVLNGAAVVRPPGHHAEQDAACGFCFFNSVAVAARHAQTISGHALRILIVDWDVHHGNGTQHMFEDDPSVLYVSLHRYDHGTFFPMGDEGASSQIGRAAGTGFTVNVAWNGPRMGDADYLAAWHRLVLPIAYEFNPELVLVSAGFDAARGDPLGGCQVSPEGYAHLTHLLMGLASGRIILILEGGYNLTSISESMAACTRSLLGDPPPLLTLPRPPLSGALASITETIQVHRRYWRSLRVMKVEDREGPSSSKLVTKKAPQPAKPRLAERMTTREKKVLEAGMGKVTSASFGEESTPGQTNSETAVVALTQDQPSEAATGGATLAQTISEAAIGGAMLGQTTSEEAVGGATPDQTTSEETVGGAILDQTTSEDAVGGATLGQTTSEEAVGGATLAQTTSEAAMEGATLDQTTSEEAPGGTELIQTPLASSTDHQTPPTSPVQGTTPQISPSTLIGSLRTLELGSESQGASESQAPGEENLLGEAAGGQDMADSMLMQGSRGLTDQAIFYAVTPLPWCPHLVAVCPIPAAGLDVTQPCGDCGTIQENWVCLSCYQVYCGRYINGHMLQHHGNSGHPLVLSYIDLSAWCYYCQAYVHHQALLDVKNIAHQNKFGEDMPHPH
Protocol: as §1, §2
Recombinant human HDAC6 (GenBank Accession No. BC069243), full length, MW=159 kDa, was expressed by baculovirus in Sf9 insect cells using an N-terminal GST tag.
as §3
HDAC6: 0.3 ng/ul HDAC6 and 50 μM HDAC substrate are in the reaction buffer with 1% DMSO final. Incubate for 1 hours at 30° C.
as §4, §5

Human HDAC7 = biological target: T5, Human HDAC7 (Homo sapiens, UniProt Q8WUI4); assay: HDAC7 biochemical assay, class IIa-specific substrate; conditions: read-out: HDAC Isoform IC50 (nM) 7
T5 construct: (a.a. 518-end) with N-terminal GST tag; GST (N); host or cells: baculovirus expression system
T5 sequence (Q8WUI4 518-952 limits assumed): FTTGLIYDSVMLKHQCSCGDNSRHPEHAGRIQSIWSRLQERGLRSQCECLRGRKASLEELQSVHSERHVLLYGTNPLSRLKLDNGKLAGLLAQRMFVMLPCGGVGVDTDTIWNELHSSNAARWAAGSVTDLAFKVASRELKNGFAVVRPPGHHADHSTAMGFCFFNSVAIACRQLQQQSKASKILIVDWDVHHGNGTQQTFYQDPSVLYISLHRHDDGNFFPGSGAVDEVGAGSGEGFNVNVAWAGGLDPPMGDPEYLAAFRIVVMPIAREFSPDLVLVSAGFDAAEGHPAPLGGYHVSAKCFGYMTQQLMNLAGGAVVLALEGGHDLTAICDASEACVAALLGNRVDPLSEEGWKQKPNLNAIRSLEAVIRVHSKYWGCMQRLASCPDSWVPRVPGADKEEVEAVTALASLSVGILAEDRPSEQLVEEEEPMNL
Protocol: as §1, §2
Human HDAC7 (GenBank Accession No. AY302468), (a.a. 518-end) with N-terminal GST tag, MW=78 kDa, expressed in baculovirus expression system.
as §3, §6
HDAC7: 0.001 ng/ul HDAC7 and 50 μM Class IIa HDAC substrate are in the reaction buffer with 1% DMSO final. Incubate for 30 minutes at room temperature.
as §4, §5

Human HDAC9 = biological target: T6, Human HDAC9 (Homo sapiens, UniProt Q9UKV0); assay: HDAC9 biochemical assay, class IIa-specific substrate; conditions: read-out: HDAC Isoform IC50 (nM) 9
T6 construct: amino acids 604-1066 with C-terminal His tag; His (C); host or cells: baculovirus expression system
T6 sequence (Q9UKV0 604-1066 isoform Q9UKV0-5): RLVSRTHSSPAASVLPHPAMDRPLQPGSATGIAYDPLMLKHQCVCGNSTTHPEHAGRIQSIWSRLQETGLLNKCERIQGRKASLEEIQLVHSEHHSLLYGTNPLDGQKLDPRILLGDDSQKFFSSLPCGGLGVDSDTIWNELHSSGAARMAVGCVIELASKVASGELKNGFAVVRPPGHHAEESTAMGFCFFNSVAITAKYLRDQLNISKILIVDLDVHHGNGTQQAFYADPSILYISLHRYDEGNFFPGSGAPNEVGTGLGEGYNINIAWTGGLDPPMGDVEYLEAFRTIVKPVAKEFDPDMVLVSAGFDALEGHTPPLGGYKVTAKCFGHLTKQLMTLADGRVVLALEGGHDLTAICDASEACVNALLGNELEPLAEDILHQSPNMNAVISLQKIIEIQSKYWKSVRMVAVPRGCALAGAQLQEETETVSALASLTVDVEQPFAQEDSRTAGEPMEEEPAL
Protocol: as §1, §2
Human HDAC9 (GenBank Accession No. NM_178423), amino acids 604-1066 with C-terminal His tag, MW=50.7 kDa, expressed in baculovirus expression system.
as §3, §6
HDAC9: 0.06 ng/ul HDAC9 and 50 μM Class IIa HDAC substrate are in the reaction buffer with 1% DMSO final. Incubate for 30 minutes at room temperature.
as §4, §5

Structure (SMILES)	IC50 (Human HDAC1) [nM]	IC50 (Human HDAC4) [nM]	IC50 (Human HDAC5) [nM]	IC50 (Recombinant human HDAC6) [nM]	IC50 (Human HDAC7) [nM]	IC50 (Human HDAC9) [nM]
FC(F)(F)c1ccc(N(Cc2ccc(-c3noc(C(F)(F)F)n3)s2)c2cnccn2)nc1 [Example AB, N-({5-[5-(Trifluoromethyl)-1,2,4-oxadiazol-3-yl]thiophen-2-yl}methyl)-N-[5-(trifluoromethyl)pyridin-2-yl]pyrazin-2-amine]	> 10000	≤ 10000	≤ 10000	≤ 10000	> 10000	≤ 10000
Cc1cnc(C)c(N(Cc2ccc(-c3noc(C(F)(F)F)n3)s2)c2cnccn2)n1 [Example BU, 3,6-Dimethyl-N-(pyrazin-2-yl)-N-({5-[5-(trifluoromethyl)-1,2,4-oxadiazol-3-yl]thiophen-2-yl}methyl)pyrazin-2-amine]	> 10000	≤ 500	≤ 500	≤ 10000	≤ 1000	≤ 1000
Cc1cc(C)nc(N(Cc2ccc(-c3noc(C(F)(F)F)n3)s2)c2cnccn2)n1 [Example AZ, 4,6-Dimethyl-N-(pyrazin-2-yl)-N-({5-[5-(trifluoromethyl)-1,2,4-oxadiazol-3-yl]thiophen-2-yl}methyl)pyrimidin-2-amine]	> 10000	> 10000	≤ 10000	≤ 10000	> 10000	> 10000
CS(=O)(=O)c1ncc(N(Cc2ccc(-c3noc(C(F)(F)F)n3)s2)c2cnccn2)cn1 [Example CW, 2-Methanesulfonyl-N-(pyrazin-2-yl)-N-({5-[5-(trifluoromethyl)-1,2,4-oxadiazol-3-yl]thiophen-2-yl}methyl)pyrimidin-5-amine]	> 10000	≤ 500	≤ 500	≤ 10000	≤ 500	≤ 10000
FC(F)(F)c1nc(-c2ccc(CN(c3cnccn3)c3cnc4[nH]ccc4n3)s2)no1 [Example BN, N-{5H-Pyrrolo[2,3-b]pyrazin-2-yl}-N-({5-[5-(trifluoromethyl)-1,2,4-oxadiazol-3-yl]thiophen-2-yl}methyl)pyrazin-2-amine]	> 10000	≤ 500	≤ 500	≤ 1000	≤ 500	≤ 500
FC(F)(F)c1nc(-c2ccc(CN(c3cnccn3)c3nccc4cnccc34)s2)no1 [Example AK, N-(Pyrazin-2-yl)-N-({5-[5-(trifluoromethyl)-1,2,4-oxadiazol-3-yl]thiophen-2-yl}methyl)-2,6-naphthyridin-1-amine]	> 10000	≤ 500	≤ 500	≤ 1000	≤ 500	≤ 500
Cc1ncc(N(Cc2ccc(-c3noc(C(F)(F)F)n3)s2)c2cnccn2)nc1C [Example BT, 5,6-Dimethyl-N-(pyrazin-2-yl)-N-({5-[5-(trifluoromethyl)-1,2,4-oxadiazol-3-yl]thiophen-2-yl}methyl)pyrazin-2-amine]	> 10000	≤ 10000	≤ 10000	≤ 10000	≤ 10000	≤ 10000
Cc1cncc(N(Cc2ccc(-c3noc(C(F)(F)F)n3)s2)c2cncc(C)n2)n1 [Example BX, 6-Methyl-N-(6-methylpyrazin-2-yl)-N-({5-[5-(trifluoromethyl)-1,2,4-oxadiazol-3-yl]thiophen-2-yl}methyl)pyrazin-2-amine]	> 10000	> 10000	≤ 10000	≤ 10000	≤ 10000	≤ 10000
FC(F)(F)c1nc(-c2ccc(CN(c3cnccn3)c3ccc4ccncc4n3)s2)no1 [Example Y, N-(Pyrazin-2-yl)-N-({5-[5-(trifluoromethyl)-1,2,4-oxadiazol-3-yl]thiophen-2-yl}methyl)-1,7-naphthyridin-2-amine]	> 10000	≤ 500	≤ 1000	≤ 1000	≤ 1000	≤ 1000
